Earlier results on three molecules are cited in US20220079889A1, “USE OF CANNABANOIDS IN THE TREATMENT OF PROLIFERATIVE DIABETIC RETINOPATHY” (VERDANT PHARMACEUTICALS, LLC, priority 2020, published 2022).

For the data set the following is noted: typical value; cited from earlier work.
For the molecule `CC(=O)[O-].CC(=O)[O-].CCc1c(CC)c2cc3nc(cnc4cc(OCCOCCOCCOC)c(OCCOCCOCCOC)cc4ncc4nc(cc1[n-]2)C(CCCO)=C4C)C(C)=C3CCCO.O.[Lu+3]` [lutetium texaphyrin], the “time of persistence in the target neovasculature” value (from here on “time of persistence”) is on record as “about twenty”.

Consider `C=Cc1c(C)c2cc3nc(c(CC(=O)N[C@@H](CC(=O)O)C(=O)O)c4[nH]c(cc5nc(cc1[nH]2)C(C)=C5CC)c(C)c4C(=O)O)[C@@H](CCC(=O)O)[C@@H]3C` [N-aspartyl chlorin e6], for which the “time of persistence” value is reported as “about twenty”. Take “benzoporphyrin derivative [bcnzoporphyrin derivative]”: the “time of persistence” value is reported as “about fifty”.
